According to patent publication US20050089470A1, “Labeled peptides for lectin-like oxidized low-density lipoprotein receptor (LOX-1)” (priority 2003, published 2005):
Ends that are not written are not given here. Fl = fluorescein

System: human coronary artery endothelial cells (HCAE)
Assay: Binding of fluorescein-labeled ligands to HCAE cells, imaged by laser confocal fluorescence microscopy
Type: cell-based
Conditions: HCAE cells known to express LOX-1; about 10 μL of 1 mg/ml labeled ligand, incubated 1 hour, washed three times
Protocol: Images in the assay may be acquired using a laser confocal microscope or an Imager. For example, images of peptides bound to cells can be obtained using a laser confocal microscope as follows: HCAE cells can be grown on high quality borosilicate 8-chambered glass slides (Electron Microscopy Sciences, Fort Washington, Pa.). Then, about 10 μL of 1 mg/ml of an aqueous solution of a labeled peptide can be added to the cells and incubated for 1 hour. Subsequently, the cells preferably are washed with HBSS buffer three times. The cells then can be fixed with 4% formaldehyde solution over 10 minutes. After a final wash with buffer, the slide is imaged. Images preferably are acquired using an OLYMPUS laser scanning confocal microscope, model Fluoview 300, using Ar-ion laser (selecting 488 nm line) and a 510-nm long-pass filter. Images can be acquired using two channels: reflected light and fluorescent mode channel, or an overlay of both channels.
The experimental conditions for imaging the peptide-labeled HCAECs are described previously.
The image was obtained using a laser confocal microscope as follows: HCAE cells were laid on and grown in wells on a standard commercial 96-well plate (Becton-Dickenson, Franklin Lakes, N.J.). Then, about 10 μL of 1 mg/ml labeled antibody aqueous solution was added to the cells and incubated for 1 hour. […]

Fl-KGKG-QPLFTPQ (Fl-KGKGQPLFTPQ) [comparative peptide]
binding / localization on HCAECs (fluorescent confocal image): weaker binding affinity

Fl-KKGG-FQTPPQL (Fl-KKGGFQTPPQL)
binding / localization on HCAECs (fluorescent confocal image): localized on the cells
